Where “and” joins values, the source holds several entries; their conditions need not be identical. Equal values may be shown once. Read-outs that look alike come from different tables or passages of the source.
What was measured:
[1] = Tolerability of i.v. bolus dose; assay type: in vivo, mouse; settings: mice
Description: The maximal-tolerated i.v. bolus dose of SC83288 was at 30 mg kg^−1 body weight (extrapolated initial drug plasma concentration C0 of 65,600 ng ml^−1) and 15 mg kg^−1 body weight (C0 of 27,300 ng ml^−1) in rats and mice, respectively. Observed adverse effects included ataxia, respiratory symptoms and sleepiness. However, all treated animals fully recovered within 30 min after drug application. […] Increasing the dose to 45 mg kg^−1 body weight caused apnoea in rats. The no-observed-adverse-effect level and the no-observed-effect level in rats corresponded to a tested i.v. bolus dose of 22.5 mg kg^−1 body weight (C0 of 49,200 ng ml^−1) and 15 mg kg^−1 body weight (C0 of 32,800 ng ml^−1), respectively.
On the treatment day, all animals were weighed and the dosing volume was calculated for each individual animal according to its actual body weight. All animal were dosed once. Blood samples were taken at different time points and plasma was collected after centrifugation (10,000g, 10 min, 4 °C). Plasma samples were analysed by LC–MS/MS. […] All relevant observations were recorded. The PK studies in cynomolgus monkeys and beagle dogs were performed by the Laboratory of Pharmacology and Toxicology (LPT), Hamburg, and PK and toxicity studies in mice and rats were performed by the 4SC Discovery GmbH, Munich. […]

[2] = PK study; assay type: in vivo; settings: dog i.v. 1.7 mg kg^−1; for half-life: dog
Description: On the treatment day, all animals were weighed and the dosing volume was calculated for each individual animal according to its actual body weight. All animal were dosed once. Blood samples were taken at different time points and plasma was collected after centrifugation (10,000g, 10 min, 4 °C). Plasma samples were analysed by LC–MS/MS. […] All relevant observations were recorded. The PK studies in cynomolgus monkeys and beagle dogs were performed by the Laboratory of Pharmacology and Toxicology (LPT), Hamburg, and PK and toxicity studies in mice and rats were performed by the 4SC Discovery GmbH, Munich. PK parameters were obtained by a non-compartment analysis, using Kinetica 4.1 (Thermo Scientific).

[3] = Plasma protein binding, rapid equilibrium dialysis; assay type: in vitro ADME; settings: 10 μM
Description: The study was carried out by Novamass Ltd (Oulu, Finland). The plasma protein binding of SC83288 was determined in human rat, mouse and cynomolgus plasma, using a method based on rapid equilibrium dialysis and LC/MS/MS analysis. Briefly, plasma from the different species was incubated with a final concentration of SC83288 of 10 μM for 4 h at 37 °C in a rapid equilibrium dialysis device. Proteins were then precipitated by acetonitrile addition containing a phenacetin internal standard. After centrifugation (10,000g) the supernatants were analysed by LC/MS/MS to obtain the protein unbound fraction of the analyte substance.

[4] = Allometric scaling, prediction of human PK
[5] = biological target: T1, EGFR(G719S) (Homo sapiens, UniProt P00533, G719S); test: KINOMEscan; assay type: binding; settings: read-out: Remaining enzyme activity
T1 construct: purchased Ambit (DiscoverX) KINOMEscan; Cerep
Procedure, shortened: (§1)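 Competition binding: DNA-tagged kinase, immobilized active-site ligand and test compound were combined, and kinase left on beads was quantified by qPCR of the DNA tag. Kinases were T7 phage fusions grown in a BL21-derived E. coli host or were expressed in HEK-293 cells. SC81458 was tested at 10 μM final.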

[6] = biological target: T2, FAK (Homo sapiens, UniProt Q05397); test: KINOMEscan; assay type: binding; settings: read-out: Remaining enzyme activity
T2 construct: purchased Ambit (DiscoverX) KINOMEscan; Cerep
Procedure, shortened: as §1

[7] = biological target: T3, MAP3K3 (Homo sapiens, UniProt Q99759); test: KINOMEscan; assay type: binding; settings: read-out: Remaining enzyme activity
T3 construct: purchased Ambit (DiscoverX) KINOMEscan; Cerep
Procedure, shortened: as §1

[8] = biological target: T4, PIK3CA(H1047L) (Homo sapiens, UniProt P42336, H1047L); test: KINOMEscan; assay type: binding; settings: read-out: Remaining enzyme activity
T4 construct: purchased Ambit (DiscoverX) KINOMEscan; Cerep
Procedure, shortened: as §1

T1 sequence (P00533 25-1210 G719S): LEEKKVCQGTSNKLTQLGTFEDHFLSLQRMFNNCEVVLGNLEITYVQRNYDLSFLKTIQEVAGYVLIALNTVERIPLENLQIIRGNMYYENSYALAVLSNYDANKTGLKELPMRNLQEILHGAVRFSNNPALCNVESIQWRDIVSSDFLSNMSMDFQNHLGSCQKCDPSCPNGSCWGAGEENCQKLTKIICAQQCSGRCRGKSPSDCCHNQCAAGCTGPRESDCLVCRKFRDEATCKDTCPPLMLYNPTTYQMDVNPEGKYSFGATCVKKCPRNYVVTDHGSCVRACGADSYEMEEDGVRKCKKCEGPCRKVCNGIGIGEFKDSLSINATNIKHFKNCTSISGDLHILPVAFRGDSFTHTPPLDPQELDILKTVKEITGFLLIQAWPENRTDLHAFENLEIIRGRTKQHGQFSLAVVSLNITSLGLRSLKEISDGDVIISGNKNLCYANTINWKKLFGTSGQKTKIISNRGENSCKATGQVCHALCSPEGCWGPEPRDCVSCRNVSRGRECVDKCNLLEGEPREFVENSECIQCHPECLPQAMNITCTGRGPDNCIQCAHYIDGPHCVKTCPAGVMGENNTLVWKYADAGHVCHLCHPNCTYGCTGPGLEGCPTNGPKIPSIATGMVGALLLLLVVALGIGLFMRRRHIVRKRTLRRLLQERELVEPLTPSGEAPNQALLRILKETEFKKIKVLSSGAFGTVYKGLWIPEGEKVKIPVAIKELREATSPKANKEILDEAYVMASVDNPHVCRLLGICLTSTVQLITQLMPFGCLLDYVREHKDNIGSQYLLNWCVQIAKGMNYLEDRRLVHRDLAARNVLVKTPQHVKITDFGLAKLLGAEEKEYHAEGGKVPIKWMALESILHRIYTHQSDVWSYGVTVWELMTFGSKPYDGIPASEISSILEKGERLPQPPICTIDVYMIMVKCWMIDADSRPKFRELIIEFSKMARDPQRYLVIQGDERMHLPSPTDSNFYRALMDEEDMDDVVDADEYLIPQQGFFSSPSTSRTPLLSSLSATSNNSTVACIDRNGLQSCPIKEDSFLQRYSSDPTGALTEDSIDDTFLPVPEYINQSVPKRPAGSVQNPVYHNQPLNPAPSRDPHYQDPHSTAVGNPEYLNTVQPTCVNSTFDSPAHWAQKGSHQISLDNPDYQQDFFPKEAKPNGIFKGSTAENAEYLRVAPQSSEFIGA
T2 sequence (Q05397 whole entry): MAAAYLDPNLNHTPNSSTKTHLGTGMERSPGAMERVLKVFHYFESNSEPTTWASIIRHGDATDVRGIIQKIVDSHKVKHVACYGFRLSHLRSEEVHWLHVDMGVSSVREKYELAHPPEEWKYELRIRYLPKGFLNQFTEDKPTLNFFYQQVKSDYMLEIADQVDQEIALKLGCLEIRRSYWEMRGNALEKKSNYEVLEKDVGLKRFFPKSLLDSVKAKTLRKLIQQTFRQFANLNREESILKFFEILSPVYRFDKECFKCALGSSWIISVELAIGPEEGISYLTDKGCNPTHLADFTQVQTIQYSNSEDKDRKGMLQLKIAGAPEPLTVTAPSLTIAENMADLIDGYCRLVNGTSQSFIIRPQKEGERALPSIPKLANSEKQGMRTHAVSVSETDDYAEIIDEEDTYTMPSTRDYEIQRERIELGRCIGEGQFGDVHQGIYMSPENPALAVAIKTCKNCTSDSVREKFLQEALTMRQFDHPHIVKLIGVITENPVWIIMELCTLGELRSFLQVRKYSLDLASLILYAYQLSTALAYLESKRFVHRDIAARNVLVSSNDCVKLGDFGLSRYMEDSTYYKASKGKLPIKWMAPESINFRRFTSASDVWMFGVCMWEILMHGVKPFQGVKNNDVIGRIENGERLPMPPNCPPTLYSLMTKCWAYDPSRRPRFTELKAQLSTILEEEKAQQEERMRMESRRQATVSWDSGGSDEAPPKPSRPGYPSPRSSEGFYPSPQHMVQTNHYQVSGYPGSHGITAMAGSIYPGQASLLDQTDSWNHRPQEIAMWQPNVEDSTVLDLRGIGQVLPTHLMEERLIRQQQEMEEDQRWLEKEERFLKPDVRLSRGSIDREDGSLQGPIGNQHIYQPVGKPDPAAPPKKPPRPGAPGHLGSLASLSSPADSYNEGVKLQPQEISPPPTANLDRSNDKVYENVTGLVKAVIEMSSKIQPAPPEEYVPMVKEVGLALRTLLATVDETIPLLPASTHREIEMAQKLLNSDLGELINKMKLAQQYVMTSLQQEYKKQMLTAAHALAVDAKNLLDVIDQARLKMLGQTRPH
T3 sequence (Q99759 whole entry): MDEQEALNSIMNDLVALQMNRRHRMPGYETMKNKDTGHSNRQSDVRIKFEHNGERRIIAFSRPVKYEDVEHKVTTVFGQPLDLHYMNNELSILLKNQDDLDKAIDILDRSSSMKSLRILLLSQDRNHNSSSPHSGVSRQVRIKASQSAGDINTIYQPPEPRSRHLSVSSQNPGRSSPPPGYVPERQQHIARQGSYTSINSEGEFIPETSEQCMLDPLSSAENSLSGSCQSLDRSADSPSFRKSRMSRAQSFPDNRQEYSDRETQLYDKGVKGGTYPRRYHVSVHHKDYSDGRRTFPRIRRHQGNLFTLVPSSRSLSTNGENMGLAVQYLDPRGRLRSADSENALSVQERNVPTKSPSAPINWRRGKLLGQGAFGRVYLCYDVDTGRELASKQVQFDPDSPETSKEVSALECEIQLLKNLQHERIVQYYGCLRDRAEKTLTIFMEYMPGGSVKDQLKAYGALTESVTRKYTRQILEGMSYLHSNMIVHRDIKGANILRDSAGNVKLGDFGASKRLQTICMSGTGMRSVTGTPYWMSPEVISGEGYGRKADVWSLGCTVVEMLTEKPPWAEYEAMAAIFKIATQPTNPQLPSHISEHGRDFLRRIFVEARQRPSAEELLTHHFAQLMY
T4 sequence (P42336 whole entry H1047L): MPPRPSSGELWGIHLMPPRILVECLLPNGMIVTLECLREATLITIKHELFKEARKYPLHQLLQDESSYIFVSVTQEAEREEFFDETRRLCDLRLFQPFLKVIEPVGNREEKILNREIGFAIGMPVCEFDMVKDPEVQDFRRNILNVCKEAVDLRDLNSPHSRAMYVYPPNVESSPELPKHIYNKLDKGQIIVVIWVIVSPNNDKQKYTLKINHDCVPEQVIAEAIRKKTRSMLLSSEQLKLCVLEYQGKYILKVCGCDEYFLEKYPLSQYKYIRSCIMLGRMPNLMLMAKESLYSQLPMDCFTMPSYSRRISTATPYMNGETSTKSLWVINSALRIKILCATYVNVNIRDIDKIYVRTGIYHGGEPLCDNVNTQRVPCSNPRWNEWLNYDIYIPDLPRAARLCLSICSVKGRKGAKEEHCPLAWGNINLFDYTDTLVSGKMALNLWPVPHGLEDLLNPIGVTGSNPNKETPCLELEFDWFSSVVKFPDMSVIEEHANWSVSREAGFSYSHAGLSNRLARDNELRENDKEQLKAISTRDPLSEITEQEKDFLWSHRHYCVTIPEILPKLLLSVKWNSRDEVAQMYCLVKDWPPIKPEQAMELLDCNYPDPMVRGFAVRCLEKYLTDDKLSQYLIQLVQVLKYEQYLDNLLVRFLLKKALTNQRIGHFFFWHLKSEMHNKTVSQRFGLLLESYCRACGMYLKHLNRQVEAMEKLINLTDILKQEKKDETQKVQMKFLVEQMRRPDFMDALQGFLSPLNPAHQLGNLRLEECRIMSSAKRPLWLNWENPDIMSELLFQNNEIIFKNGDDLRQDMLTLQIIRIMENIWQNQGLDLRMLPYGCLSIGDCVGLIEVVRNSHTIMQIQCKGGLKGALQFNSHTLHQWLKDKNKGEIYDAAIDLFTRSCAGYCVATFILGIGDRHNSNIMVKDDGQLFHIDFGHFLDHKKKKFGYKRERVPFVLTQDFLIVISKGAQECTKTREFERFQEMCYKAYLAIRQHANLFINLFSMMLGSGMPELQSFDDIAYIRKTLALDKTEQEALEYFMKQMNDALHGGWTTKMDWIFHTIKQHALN

COC(=O)N1CCN(C(=N)c2cccc(NC(=O)Nc3ccc(S(=O)(=O)NCc4ccc(S(N)(=O)=O)cc4)cc3)c2)CC1 [SC83288, methyl 4-(imino(3-(3-(4-(N-(4-sulfamoylbenzyl)sulfamoyl)phenyl)ureido)phenyl)methyl) piperazine-1-carboxylate]
maximal-tolerated i.v. bolus dose [1]: 15 mg kg^−1 body weight | C0 ([1]; mouse, plasma, iv, 15 mg kg^−1 i.v. bolus, read-out: extrapolated C0): 27300 ng/mL | half-life ([2]; beagle, plasma, iv, read-out: t1/2 effective): 35 min | half-life ([2]; beagle, plasma, iv, read-out: t1/2 initial): 12 min | half-life ([2]; beagle, plasma, iv, read-out: t1/2 terminal): 90 min | AUC(0-inf) ([2]; beagle, plasma, iv): 2260 ng·h/mL | C0 ([2]; beagle, plasma, iv): 5580 ng/mL | Cmax ([2]; beagle, plasma, iv): 4560 ng/mL | Tmax ([2]; beagle, plasma, iv): 5 min | clearance ([2]; beagle, plasma, iv): 14.7 mL/min/kg | MRT last ([2]; beagle, plasma, iv, read-out: MRT0-t): 50.4 min | VC [2]: 0.359 L/kg | Bound fraction ([3]; cynomolgus plasma): 82 ± 2.8% and 82% | Bound fraction ([3]; human plasma): 78 ± 1.3% and 78% | Bound fraction ([3]; mouse plasma): 89 ± 2.2% and 89% | Bound fraction ([3]; rat plasma): 80 ± 0.6% | predicted human plasma clearance ([4]; allometric scaling, rule of exponents): 14.7 L/h | total plasma clearance rate (higher estimate) ([4]; human): 15,180 ml h^−1 | total plasma concentration for […] the free MPC ([4]; human projection, assuming 78% plasma protein binding): 860 ng/mL

CCCCN1CCN(C(=N)c2cccc(NC(=O)Nc3ccc(S(=O)(=O)NCc4ccc(S(N)(=O)=O)cc4)cc3)c2)CC1 [SC81458, 4-(3-(3-((4-butylpiperazin-1-yl)(imino)methyl)phenyl)ureido)-N-(4-sulfamoylbenzyl) benzenesulfonamide]
remaining binding at 10 µM [5]: 100% | remaining binding at 10 µM [6]: 100% | remaining binding at 10 µM [7]: 100% | remaining binding at 10 µM [8]: 100%

Reference: paper PMC5290327, “SC83288 is a clinical development candidate for the treatment of severe malaria” (Nature Communications, 2017)
